In brackets after ≈: the same amount, converted by molar mass. Blank lines part the entries; values can stand above or below the compound they belong to.
How the values were obtained:
Histone deacetylase 2 = Histone deacetylase 2 (Homo sapiens, UniProt Q92769); assay: Light-dependent inhibition of recombinant full length human HDAC2 expressed in baculovirus infected Sf9 insect cells preincubated for 1 hr in presence of LED light irradiation followed by substrate addition and measured for 30 mins by fluorescence method
Histone deacetylase 2, sequence (Q92769 whole entry): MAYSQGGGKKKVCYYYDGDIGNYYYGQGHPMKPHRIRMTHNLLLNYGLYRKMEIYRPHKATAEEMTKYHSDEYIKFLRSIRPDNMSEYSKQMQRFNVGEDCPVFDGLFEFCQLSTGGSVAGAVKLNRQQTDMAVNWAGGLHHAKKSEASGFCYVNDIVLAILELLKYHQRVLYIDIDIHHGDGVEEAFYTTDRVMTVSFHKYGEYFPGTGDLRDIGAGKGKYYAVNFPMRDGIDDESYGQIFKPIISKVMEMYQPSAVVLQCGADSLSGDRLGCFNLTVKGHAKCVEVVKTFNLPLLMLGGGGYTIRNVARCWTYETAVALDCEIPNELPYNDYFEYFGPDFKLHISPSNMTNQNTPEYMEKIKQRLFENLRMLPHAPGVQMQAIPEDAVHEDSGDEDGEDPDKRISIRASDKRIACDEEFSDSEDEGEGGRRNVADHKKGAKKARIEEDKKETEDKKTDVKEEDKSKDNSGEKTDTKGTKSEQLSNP

[1] = Thermal relaxation half life in PBS buffer; assay type: physicochemical
Escherichia coli [2] = assay: Antibacterial activity against Quinolone-sensitive Escherichia coli CS1562 (tolC6:tn10) using irradiated compound measured every 10 min for 12 hrs by broth dilution method; assay type: functional; details: light or radiation study
Escherichia coli [3] = assay: Antibacterial activity against Quinolone-sensitive Escherichia coli CS1562 (tolC6:tn10) measured every 10 min for 12 hrs by broth dilution method; assay type: functional
[4] = Half life of compound in water at 21x10^-6 M; assay type: physicochemical; details: dose 21 10^-6M
[5] = Half life in Dutch Belted rabbit retina at 30 uM, IVT measured after 24 to 336 hrs by LC-MS/MS analysis; assay type: ADME, tissue-based, Oryctolagus cuniculus; details: topical or ocular, time 24-336 hrs

IC50 (Histone deacetylase 2): < 100 nM | t1/2 [1]: 56 microsec
SMILES: CN(C)c1ccc(/N=N\c2ccc(C(=O)Nc3cc(-c4cccs4)ccc3O)cc2)cc1

MIC (Escherichia coli [2]): 16 µg/mL (≈ 43.8 µM) | MIC (Escherichia coli [3]): ≥ 64 µg/mL | half-life at 21 µM [4]: 120 min
SMILES: CCn1cc(C(=O)O)c(=O)c2ccc(/N=N\c3ccc(OC)c(C)c3)cc21

half-life at 30 µM [5]: 24 days
SMILES: CCN(Cc1ccccc1)c1ccc(/N=N/c2ccc(NC(=O)C[N+](CC)(CC)CC)cc2)cc1 [KIO-301]
